Consider two molecules from patent US20260272889A1, “COGNITIVE FUNCTION-IMPROVING AGENT AND PHARMACEUTICAL COMPOSITION FOR TREATING OR PREVENTING COGNITIVE DYSFUNCTION” (TOHOKU UNIVERSITY, priority 2022, published 2026).

Experiment [1] has as its system schizophrenic model (MK-801) mice. Nature of the experiment: Spine density analysis of prefrontal cortex pyramidal cells, Example 2. It counts as in vivo, C57BL/6J mice. The protocol: (§1) Inbred C57BL/6J (B6J) mice were purchased from Charles River Laboratories Japan, Inc. (Kanagawa, Japan). The mice were housed four by four in standard cages and reared on a 12-hour light/dark cycle (lights on at 8:00 and off at 20:00) in a room where temperature and humidity were controlled. The mice had free access to standard laboratory chow MF (ORIENTAL YEAST Co., Ltd., Tokyo, Japan) and water. No special environmental enrichment was provided in the home cage. Behavioral testing was performed using males from 10:00 to 18:00.
(§2) MK-801 (FUJIFILM Wako Pure Chemical Corporation, Osaka, Japan) was diluted with physiological saline to a concentration of 1 mg/ml to prepare a stock solution, which was stored at −80° C. The MK-801 stock solution (1 mg/ml) was then further diluted with physiological saline to 20 μg/ml and stored at −20° C. as a solution for administration. The MK-801 administration solution (20 μg/ml) was thawed on the day of administration and used for administration to mice. The MK-801 administration solution (20 μg/ml) was used within one week after freezing. MK-801 is an antagonist of an NMDA (glutamatergic N-methyl-D-aspartate) receptor. Chronic administration of MK-801 to mice causes a decrease in spine density and abnormal behavior similar to schizophrenia in mice. Mice to which MK-801 was chronically administered were used as a disease model of schizophrenia. Mice to which physiological saline was administered instead of MK-801 were used as a healthy model.
(§3) Pemafibrate (Toronto Research Chemicals, Tronto, Canada) was diluted with DMSO to a concentration of 30 mg/ml and stored as a stock solution at −80° C. On the day of administration, the pemafibrate stock solution (30 mg/ml) was diluted with corn oil (Sigma-Aldrich, USA) to a concentration of 0.1 mg/ml and used for administration to mice. As a control, a DMSO solution prepared by diluting DMSO in corn oil was used for administration to mice (DMSO:corn oil=1:300).
(§4) MK-801 (0.2 mg/kg/day) or physiological saline was intraperitoneally administered to 6-week-old C57BL/6J mice (males) once a day for 2 weeks. […]

Experiment [2] shares this test system. Kind of experiment: Novel object recognition test (NORT), MK-801 schizophrenic model, Example 2. Type of experiment: in vivo, C57BL/6J mice. The protocol: as §1, §2, §3, §4
Experiment [3] concerns mouse microglial cell line MG6. Kind of experiment: qRT-PCR of cytokine expression in microglial cell line MG6 (Example 1). Type of experiment: cell-based. The conditions noted are these: MG6 cells, 0.03 μM or 0.1 μM, 24 hours, qRT-PCR normalized with Gapdh. The protocol:
A mouse microglial cell line MG6 was used for experiments. MG6 was seeded on a 12-well plate at 5×10^4 cells/well using a DMEM (high glucose) medium containing 10% of FBS, 10 μg/ml of insulin, and 0.1 mM of 2-mercaptoethanol. The seeded MG6 was cultured in an incubator at 37° C. and a CO2 concentration of 5%. After 24 hours from the start of culture, drugs were added as follows. First, pemafibrate as the PPARα agonist was diluted with DMEM (high glucose) medium to have a final concentration of 0.03 μM or 0.1 μM using dimethylsulfoxide (DMSO) as a solvent. Then, the total amount of the medium of the well in which MG6 was seeded was replaced with the medium containing 0.03 μM or 0.1 μM of pemafibrate, or a medium to which DMSO was added as a control. Cells were collected additional 24 hours after the medium replacement.
Total RNA was extracted from the collected cells using RNeasy Mini kit (Qiagen). Reverse transcription of the total RNA was performed using GeneAce cDNA Synthesis Kit (FUJIFILM Wako Pure Chemical Corporation). THUNDERBIRD (trade name) SYBR qPCR Mix (Toyobo) was used to perform qRT-PCR by ABI7500 Real Time PCR system (Thermo Fisher Scientific). Relative gene expression was calculated by a ΔCt method and normalized with Gapdh. The following primers were used.

For experiment [4], the system named is schizophrenic model (MK-801) mice. Nature of the experiment: Spine density analysis, examination of prophylaxis, Example 3. The conditions noted are these: FIG. 12. Type of experiment: in vivo, C57BL/6J mice. The procedure:
(§5) Animals and reagents the same as in Example 2 were used.
(§6) Examination of prophylaxis: Pemafibrate (0.3 mg/kg/day) or solvent (DMSO solution) was orally administered to 6-week-old C57BL/6J mice (males) once a day for 2 weeks. Mice to which pemafibrate was administered and mice to which DMSO was administered were each divided into two groups, to which MK-801 (0.2 mg/kg/day) or physiological saline was intraperitoneally administered once a day for two weeks.
(§7) Sampling for spine density analysis was performed after completion of NORT. Spine density analysis was performed using a group of 6 mice. Spine density analysis was performed in a manner similar to that in Example 2.
(§8) In the examination of the prophylaxis, pemafibrate was administered to 6-week-old mice for 2 weeks, and then MK-801 was administered thereto for 2 weeks (see upper parts in FIG. 11 and FIG. 12). In the healthy model, physiological saline (saline) was administered instead of MK-801.

Experiment [5] has the same test system. Nature of the experiment: Spine density analysis, examination of therapeutic method, Example 3. Type of experiment: in vivo, C57BL/6J mice. The protocol:
as §5
(§9) MK-801 (0.2 mg/kg/day) or physiological saline was intraperitoneally administered to 6-week-old C57BL/6J mice (males) once a day for 2 weeks. Mice to which MK-801 was administered and mice to which physiological saline was administered were each divided into two groups, to which pemafibrate (0.3 mg/kg/day) or solvent (DMSO solution) was orally administered once a day for one week.
as §7
(§10) In the examination of the therapeutic method, a schizophrenic model in which MK-801 was administered to 6-week-old mice for 2 weeks was used (see upper parts in FIGS. 9 and 10). In the healthy model, physiological saline (saline) was administered instead of MK-801.

Experiment [6] shares this test system. Kind of experiment: NORT, examination of prophylaxis, Example 3. Type of experiment: in vivo, C57BL/6J mice. The conditions noted are these: FIG. 11. The procedure: as §5, §6
(§11) NORT was performed using a group of 12 mice. NORT was performed in a manner similar to that in Example 1.
as §8

Experiment [7] has the same test system. Nature of the experiment: NORT, examination of therapeutic method, Example 3. It counts as in vivo, C57BL/6J mice. The conditions noted are these: FIG. 9. The protocol: as §5, §9, §11, §10
Where [8] appears, read: schizophrenic model (MK-801(+)), pemafibrate 0.3 mg/kg/day oral 1 week, FIG. 8.
[9] abbreviates: prophylaxis: pemafibrate 0.3 mg/kg/day oral 2 weeks, then MK-801 2 weeks, group (4).

For the molecule `CC[C@@H](Oc1cccc(CN(CCCOc2ccc(OC)cc2)c2nc3ccccc3o2)c1)C(=O)O` [pemafibrate], the “spine density compared with healthy model” value in experiment [1] (setting [8]) is recorded as “no significant difference”. For the same molecule, the “spine density compared with pemafibrate non-administration group of schizophrenic model” value in experiment [1] (setting [8]) is given as “significantly increased”. Also, the “NORT dwell time around new object compared with familiar object” value is “significantly longer” in experiment [2] (healthy model (MK-801(-)), pemafibrate 0.3 mg/kg/day oral 1 week, FIG. 6); “significantly longer” in experiment [2] (schizophrenic model (MK-801(+)), pemafibrate 0.3 mg/kg/day oral 1 week after MK-801, FIG. 6); “significantly longer” in experiment [6] (prophylaxis: healthy models (saline), with pemafibrate); “significantly longer” in experiment [6] (setting [9]); “significantly longer” in experiment [7] (therapeutic: healthy models (saline), with pemafibrate); “significantly longer” in experiment [7] (therapeutic: schizophrenic model group (4), pemafibrate 0.3 mg/kg/day oral 1 week after MK-801 2 weeks). Moreover, the “expression of inflammatory cytokines (IL-1b, Tnfa)” value in experiment [3] (FIG. 1) was “inhibits the expression”. In addition, in experiment [3] (FIG. 2), the “expression of anti-inflammatory cytokines (IL-4, IL-10)” value was “inhibits the expression”. Further, in experiment [4] (prophylaxis: group (4) vs non-administration group (3)), the “decrease in spine density caused by MK-801” value is “suppressed”. The “spine density compared with healthy models” value in experiment [4] (setting [9]) is reported as “no significant difference”; in experiment [5] (therapeutic: schizophrenic model group (4), pemafibrate 0.3 mg/kg/day oral 1 week after MK-801, FIG. 10), “no significant difference”. For the same molecule, in experiment [5] (therapeutic: group (4) vs non-administration group (3), FIG. 10), the “effect on spine density of schizophrenic model” value was “restores the spine density”.

With `C[C@]12N[C@H](Cc3ccccc31)c1ccccc12` [MK-801], the “spine density compared with healthy model (saline)” value in experiment [1] (MK-801 0.2 mg/kg/day i.p. 2 weeks, no pemafibrate, FIG. 7) is on record as “significantly reduced”. Moreover, the “NORT dwell time, new object vs familiar object” value in experiment [2] (MK-801 0.2 mg/kg/day i.p. 2 weeks, no pemafibrate, FIG. 5) is recorded as “no significant difference”.
